Each block holds one compound with its values, some of them ahead of it.
Assays:
[1] = test system: MV4-11; test: Induction of apoptosis in human MV4-11 cells assessed as viable cells at 200 nmol/L incubated for 72 hrs by Annexin V/PI staining based flow cytometry analysis (reference value: 90.23%); assay type: functional
[2] = test system: MV4-11; test: Induction of apoptosis in human MV4-11 cells assessed as early apoptotic cells at 200 nmol/L incubated for 72 hrs by Annexin V/PI staining based flow cytometry analysis (reference value: 4.17 %); assay type: functional
[3] = test system: MV4-11; test: Induction of apoptosis in human MV4-11 cells assessed as late apoptotic cells at 200 nmol/L incubated for 72 hrs by Annexin V/PI staining based flow cytometry analysis (reference value: 5.14%); assay type: functional
[4] = test system: MV4-11; test: Induction of apoptosis in human MV4-11 cells assessed as necrotic cells at 200 nmol/L incubated for 72 hrs by Annexin V/PI staining based flow cytometry analysis (reference value: 0.46%); assay type: functional
[5] = target: Histone-lysine N-methyltransferase 2A/WDR5 (Homo sapiens, UniProt P61964); test: Inhibition of MLL1/WDR5 (unknown origin) protein-protein interaction incubated for 2 hrs by FP analysis; assay type: protein assay
[6] = target: Histone deacetylase 2 (Homo sapiens, UniProt Q92769); test: Inhibition of HDAC2 (unknown origin) by fluorescence based assay
Sequence of Histone deacetylase 2 (Q92769 whole entry): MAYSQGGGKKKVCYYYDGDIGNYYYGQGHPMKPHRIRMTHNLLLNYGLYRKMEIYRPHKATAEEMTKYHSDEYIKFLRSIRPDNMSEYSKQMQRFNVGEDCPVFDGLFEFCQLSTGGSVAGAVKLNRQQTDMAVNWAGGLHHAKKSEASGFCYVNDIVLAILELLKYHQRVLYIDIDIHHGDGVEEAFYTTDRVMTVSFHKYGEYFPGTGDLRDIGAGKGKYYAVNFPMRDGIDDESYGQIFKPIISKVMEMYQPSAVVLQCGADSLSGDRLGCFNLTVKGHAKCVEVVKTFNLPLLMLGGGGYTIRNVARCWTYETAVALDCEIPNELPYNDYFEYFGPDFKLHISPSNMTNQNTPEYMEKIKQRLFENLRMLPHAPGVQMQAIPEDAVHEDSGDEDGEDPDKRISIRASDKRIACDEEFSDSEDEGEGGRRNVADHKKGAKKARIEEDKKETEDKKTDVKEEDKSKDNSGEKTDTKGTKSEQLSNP

[7] = target: T1, Histone deacetylase 8 (Homo sapiens, UniProt Q9BY41); test: Inhibition of HDAC8 (unknown origin) by fluorescence based assay
T1 sequence (Q9BY41 whole entry): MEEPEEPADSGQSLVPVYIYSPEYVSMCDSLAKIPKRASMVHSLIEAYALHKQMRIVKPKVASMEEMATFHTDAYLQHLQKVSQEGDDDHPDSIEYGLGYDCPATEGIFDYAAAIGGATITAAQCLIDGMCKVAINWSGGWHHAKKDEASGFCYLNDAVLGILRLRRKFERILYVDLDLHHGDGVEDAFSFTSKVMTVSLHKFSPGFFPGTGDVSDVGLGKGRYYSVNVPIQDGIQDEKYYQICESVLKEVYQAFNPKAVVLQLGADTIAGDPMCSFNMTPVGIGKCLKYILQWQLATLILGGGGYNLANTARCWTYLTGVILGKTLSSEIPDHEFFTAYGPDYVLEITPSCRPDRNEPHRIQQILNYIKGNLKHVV

[8] = target: Histone deacetylase 4 (Homo sapiens, UniProt P56524); test: Inhibition of HDAC4 (unknown origin) by fluorescence based assay
Sequence of Histone deacetylase 4 (P56524 whole entry): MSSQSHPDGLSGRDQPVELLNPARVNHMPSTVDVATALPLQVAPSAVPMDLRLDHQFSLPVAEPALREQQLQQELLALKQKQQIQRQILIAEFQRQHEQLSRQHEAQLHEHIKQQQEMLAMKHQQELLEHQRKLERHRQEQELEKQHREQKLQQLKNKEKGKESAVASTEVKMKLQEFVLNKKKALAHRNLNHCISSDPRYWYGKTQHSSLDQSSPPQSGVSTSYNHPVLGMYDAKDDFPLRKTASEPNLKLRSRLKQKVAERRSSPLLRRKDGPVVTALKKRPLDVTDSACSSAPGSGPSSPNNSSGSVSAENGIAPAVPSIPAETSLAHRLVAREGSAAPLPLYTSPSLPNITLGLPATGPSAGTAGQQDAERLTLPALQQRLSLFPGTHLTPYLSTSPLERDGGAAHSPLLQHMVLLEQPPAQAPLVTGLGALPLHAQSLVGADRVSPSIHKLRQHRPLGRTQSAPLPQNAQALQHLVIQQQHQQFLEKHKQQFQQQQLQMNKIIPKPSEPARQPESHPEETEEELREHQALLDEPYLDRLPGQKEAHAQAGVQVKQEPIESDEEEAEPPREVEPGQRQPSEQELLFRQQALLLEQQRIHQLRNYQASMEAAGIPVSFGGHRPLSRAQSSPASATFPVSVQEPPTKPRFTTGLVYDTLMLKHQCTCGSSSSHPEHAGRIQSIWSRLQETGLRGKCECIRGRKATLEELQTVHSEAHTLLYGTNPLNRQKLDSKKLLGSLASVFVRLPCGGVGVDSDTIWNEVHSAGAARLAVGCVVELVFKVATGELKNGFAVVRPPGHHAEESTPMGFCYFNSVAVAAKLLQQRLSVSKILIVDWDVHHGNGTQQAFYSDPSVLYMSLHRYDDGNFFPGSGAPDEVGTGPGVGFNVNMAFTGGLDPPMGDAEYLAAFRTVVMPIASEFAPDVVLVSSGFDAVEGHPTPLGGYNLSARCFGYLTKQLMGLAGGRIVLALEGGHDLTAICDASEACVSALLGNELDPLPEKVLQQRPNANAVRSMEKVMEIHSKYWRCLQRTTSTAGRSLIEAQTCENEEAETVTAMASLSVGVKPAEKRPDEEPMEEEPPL

[9] = target: T2, Histone deacetylase 11 (Homo sapiens, UniProt Q96DB2); test: Inhibition of HDAC11 (unknown origin) by fluorescence based assay
T2 sequence (Q96DB2 whole entry): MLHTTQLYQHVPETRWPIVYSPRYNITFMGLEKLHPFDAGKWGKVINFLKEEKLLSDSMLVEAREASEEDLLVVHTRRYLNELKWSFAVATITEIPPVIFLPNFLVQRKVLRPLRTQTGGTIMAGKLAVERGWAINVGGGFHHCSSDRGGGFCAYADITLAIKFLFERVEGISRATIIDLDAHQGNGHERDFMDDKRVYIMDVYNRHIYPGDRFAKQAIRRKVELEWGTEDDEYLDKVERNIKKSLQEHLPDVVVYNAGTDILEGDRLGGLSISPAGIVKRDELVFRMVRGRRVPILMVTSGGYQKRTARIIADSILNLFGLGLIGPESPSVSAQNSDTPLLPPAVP

[10] = target: Histone-lysine N-methyltransferase 2A (Homo sapiens, UniProt Q03164); test: Inhibition of MLL1 (unknown origin) by fluorescence based assay
[11] = target: Histone deacetylase 3 (Homo sapiens, UniProt O15379); test: Inhibition of HDAC3 (unknown origin) by fluorescence based assay
Sequence of Histone deacetylase 3 (O15379 whole entry): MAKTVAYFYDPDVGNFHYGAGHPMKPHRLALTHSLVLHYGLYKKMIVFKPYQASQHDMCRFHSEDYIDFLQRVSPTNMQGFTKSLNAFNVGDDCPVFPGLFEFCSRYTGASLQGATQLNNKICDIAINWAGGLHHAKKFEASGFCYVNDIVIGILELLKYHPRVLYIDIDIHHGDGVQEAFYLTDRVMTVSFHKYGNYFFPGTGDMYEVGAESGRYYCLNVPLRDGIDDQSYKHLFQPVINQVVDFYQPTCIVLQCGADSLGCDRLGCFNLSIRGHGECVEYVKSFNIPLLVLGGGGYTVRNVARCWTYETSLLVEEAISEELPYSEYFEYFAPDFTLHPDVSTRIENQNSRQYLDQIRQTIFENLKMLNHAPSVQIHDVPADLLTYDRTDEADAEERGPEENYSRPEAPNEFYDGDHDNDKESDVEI

[12] = target: Histone deacetylase 1 (Homo sapiens, UniProt Q13547); test: Inhibition of HDAC1 (unknown origin) by fluorescence based assay
Sequence of Histone deacetylase 1 (Q13547 whole entry): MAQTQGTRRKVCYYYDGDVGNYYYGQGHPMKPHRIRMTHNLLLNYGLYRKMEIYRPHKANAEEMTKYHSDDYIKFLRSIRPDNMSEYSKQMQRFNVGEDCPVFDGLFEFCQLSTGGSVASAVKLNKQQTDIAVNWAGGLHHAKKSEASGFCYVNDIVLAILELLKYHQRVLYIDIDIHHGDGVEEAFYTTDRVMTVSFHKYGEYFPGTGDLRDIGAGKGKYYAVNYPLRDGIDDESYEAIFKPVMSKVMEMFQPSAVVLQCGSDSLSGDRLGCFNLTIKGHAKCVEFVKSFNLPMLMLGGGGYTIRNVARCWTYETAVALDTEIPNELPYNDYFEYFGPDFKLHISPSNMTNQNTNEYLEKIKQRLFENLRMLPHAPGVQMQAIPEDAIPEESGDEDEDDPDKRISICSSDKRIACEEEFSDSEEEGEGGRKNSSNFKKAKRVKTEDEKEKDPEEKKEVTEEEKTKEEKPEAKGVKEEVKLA

[13] = target: T3, Protein deacetylase HDAC6 (Homo sapiens, UniProt Q9UBN7); test: Inhibition of HDAC6 (unknown origin) by fluorescence based assay
T3 sequence (Q9UBN7 whole entry): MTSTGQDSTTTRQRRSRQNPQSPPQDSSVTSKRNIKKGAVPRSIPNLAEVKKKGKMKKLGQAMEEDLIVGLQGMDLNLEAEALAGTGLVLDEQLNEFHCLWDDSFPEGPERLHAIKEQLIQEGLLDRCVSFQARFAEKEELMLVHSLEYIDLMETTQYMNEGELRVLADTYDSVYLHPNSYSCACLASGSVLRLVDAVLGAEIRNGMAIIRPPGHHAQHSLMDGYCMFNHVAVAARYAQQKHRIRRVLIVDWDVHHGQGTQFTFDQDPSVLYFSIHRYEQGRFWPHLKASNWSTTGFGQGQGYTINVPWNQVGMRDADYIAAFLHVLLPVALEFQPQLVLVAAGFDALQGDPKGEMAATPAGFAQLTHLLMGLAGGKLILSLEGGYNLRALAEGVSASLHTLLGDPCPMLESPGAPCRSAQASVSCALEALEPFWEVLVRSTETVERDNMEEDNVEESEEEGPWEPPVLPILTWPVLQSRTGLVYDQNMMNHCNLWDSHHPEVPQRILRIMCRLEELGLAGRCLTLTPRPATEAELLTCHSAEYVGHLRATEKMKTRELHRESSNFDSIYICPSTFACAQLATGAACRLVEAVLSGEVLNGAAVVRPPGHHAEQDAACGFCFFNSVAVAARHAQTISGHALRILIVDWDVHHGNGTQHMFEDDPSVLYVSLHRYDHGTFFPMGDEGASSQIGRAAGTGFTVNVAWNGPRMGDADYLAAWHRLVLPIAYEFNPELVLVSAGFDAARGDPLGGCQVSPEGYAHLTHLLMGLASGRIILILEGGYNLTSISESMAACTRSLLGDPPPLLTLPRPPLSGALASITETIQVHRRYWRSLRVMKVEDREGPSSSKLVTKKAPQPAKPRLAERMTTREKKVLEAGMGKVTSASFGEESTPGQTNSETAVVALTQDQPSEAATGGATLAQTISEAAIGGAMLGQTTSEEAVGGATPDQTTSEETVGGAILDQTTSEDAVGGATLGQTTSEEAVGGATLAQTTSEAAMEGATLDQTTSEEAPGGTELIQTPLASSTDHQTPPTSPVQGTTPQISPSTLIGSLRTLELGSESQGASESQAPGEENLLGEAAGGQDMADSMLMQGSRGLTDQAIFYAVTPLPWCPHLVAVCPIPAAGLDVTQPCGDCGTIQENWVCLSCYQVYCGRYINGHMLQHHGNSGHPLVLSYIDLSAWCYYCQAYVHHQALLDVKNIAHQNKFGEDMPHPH

[14] = test system: MV4-11; test: cells; assay type: functional, cell-based; details: Homo sapiens, MV4-11, 72 h
Description: Antiproliferative activity against human MV4-11 cells assessed as inhibition of cell growth measured after 72 hrs by CellTiterGlo assay

[15] = test system: MOLM-13; test: cells; assay type: functional, cell-based; details: Homo sapiens, MOLM-13, 72 h
Description: Antiproliferative activity against human MOLM-13 cells assessed as inhibition of cell growth measured after 72 hrs by CellTiterGlo assay

Structure (SMILES): O=C(CCCCCCC(=O)Nc1ccccc1)NO [VORINOSTAT]
Activity [1]: 63.59%
Activity [2]: 14.43%
Activity [3]: 20.55%
Activity [4]: 1.42%

Structure (SMILES): Cc1c(F)c(N)cc(C(=O)Nc2cc(-c3ccc(C(=O)NCCCCCC(=O)NO)cc3)ccc2N2CCN(C)CC2)c1Cl
IC50 [5]: 0.071 µM

Structure (SMILES): Cc1c(F)c(N)cc(C(=O)Nc2cc(-c3ccc(NC(=O)CCCCCCC(=O)NO)cc3)ccc2N2CCN(C)CC2)c1Cl
IC50 [5]: 0.041 µM
IC50 [6]: 0.099 µM
IC50 [7]: > 10 µM
IC50 [8]: 3.96 µM
IC50 [9]: 7.61 µM
IC50 [10]: 0.392 µM

Structure (SMILES): Cc1c(F)c(N)cc(C(=O)Nc2cc(-c3ccc(NC(=O)c4ccccc4N)cc3)ccc2N2CCN(C)CC2)c1Cl
IC50 [5]: 0.41 µM
IC50 [11]: 10 µM

Structure (SMILES): Cc1c(F)c(N)cc(C(=O)Nc2cc(-c3ccc(C(=O)NCCCCC(=O)NO)cc3)ccc2N2CCN(C)CC2)c1Cl
IC50 [5]: 0.04 µM

Structure (SMILES): Cc1c(F)c(N)cc(C(=O)Nc2cc(-c3ccc(C(=O)NCCCCCCC(=O)NO)cc3)ccc2N2CCN(C)CC2)c1Cl
IC50 [5]: 0.04 µM

Structure (SMILES): Cc1c(F)c(N)cc(C(=O)Nc2cc(-c3ccc(NC(=O)Cc4ccc(/C=C/C(=O)NO)cc4)cc3)ccc2N2CCN(C)CC2)c1Cl
IC50 [5]: 0.069 µM
IC50 [12]: 0.831 µM
IC50 [11]: 0.663 µM
IC50 [13]: 0.157 µM
IC50 [14]: 0.115 µM
IC50 [15]: 0.31 µM

Structure (SMILES): Cc1c(F)c(N)cc(C(=O)Nc2cc(-c3ccc(C(=O)NCCCC(=O)NO)cc3)ccc2N2CCN(C)CC2)c1Cl
IC50 [5]: 0.03 µM

Structure (SMILES): Cc1c(F)c(N)cc(C(=O)Nc2cc(-c3ccc(NC(=O)CCCCCCCC(=O)NO)cc3)ccc2N2CCN(C)CC2)c1Cl
IC50 [5]: 0.23 µM

Structure (SMILES): Cc1c(F)c(N)cc(C(=O)Nc2cc(-c3ccc(NC(=O)CCCCC(=O)NO)cc3)ccc2N2CCN(C)CC2)c1Cl
IC50 [5]: 0.033 µM

Structure (SMILES): Cc1c(F)c(N)cc(C(=O)Nc2cc(-c3ccc(NC(=O)c4ccc(CC(=O)NO)cc4)cc3)ccc2N2CCN(C)CC2)c1Cl
IC50 [5]: 0.226 µM

More lines, now with the values ahead:

IC50 [5]: 0.215 µM
Structure (SMILES): Cc1c(F)c(N)cc(C(=O)Nc2cc(-c3ccc(C(=O)Nc4ccccc4N)cc3)ccc2N2CCN(C)CC2)c1Cl

IC50 [5]: 0.043 µM
Structure (SMILES): Cc1c(F)c(N)cc(C(=O)Nc2cc(-c3ccc(NC(=O)CCCC(=O)NO)cc3)ccc2N2CCN(C)CC2)c1Cl

IC50 [5]: 0.181 µM
Structure (SMILES): Cc1c(F)c(N)cc(C(=O)Nc2cc(-c3ccc(NC(=O)CCCCCC(=O)NO)cc3)ccc2N2CCN(C)CC2)c1Cl

IC50 [5]: 0.435 µM
IC50 [12]: 6.98 µM
IC50 [11]: 5.9 µM
IC50 [13]: 1.2 µM
IC50 [14]: 0.122 µM
IC50 [15]: 2.58 µM
Structure (SMILES): Cc1c(F)c(N)cc(C(=O)Nc2cc(-c3ccc(NC(=O)c4ccc(/C=C/C(=O)NO)cc4)cc3)ccc2N2CCN(C)CC2)c1Cl

IC50 [5]: 0.382 µM
IC50 [12]: 0.925 µM
IC50 [11]: 0.586 µM
IC50 [13]: 0.157 µM
IC50 [14]: 0.145 µM
IC50 [15]: 3.22 µM
Structure (SMILES): Cc1c(F)c(N)cc(C(=O)Nc2cc(-c3ccc(NC(=O)CCc4ccc(/C=C/C(=O)NO)cc4)cc3)ccc2N2CCN(C)CC2)c1Cl

IC50 [5]: 0.087 µM
Structure (SMILES): Cc1c(F)c(N)cc(C(=O)Nc2cc(-c3ccc(NC(=O)Cc4ccc(C(=O)NO)cc4)cc3)ccc2N2CCN(C)CC2)c1Cl

IC50 [5]: 0.188 µM
Structure (SMILES): Cc1c(F)c(N)cc(C(=O)Nc2cc(-c3ccc(C(=O)NCCCCCCCC(=O)NO)cc3)ccc2N2CCN(C)CC2)c1Cl
